This is an account of results in patent US20220372008A1 (VIDYASIRIMEDHI INSTITUTE OF SCIENCE AND TECHNOLOGY, priority 2019, published 2022).

One series concerns the target firefly luciferase (Photinus pyralis, UniProt P08659).
Series [1] is classed as physicochemical. The procedure:
The term “thermostable dehalogenase” used herein refers to the dehalogenase or HadA, which is reengineered or modified, particularly modified on the surface of a wild-type dehalogenase or HadA. The reengineered or modified dehalogenase or HadA, which is called a thermostable HadA or HadA G513T, has an improvement on a temperature stability. The catalytic efficiency of the thermostable HadA or HadA G513T is in a broader range of temperature from 25-50° C. Further, the wild-type dehalogenase or HadA is a dechlorinating monooxygenase that can catalyze the elimination of nitro- and halides (F, Cl, Br, I) group from nitro- and halogenated phenols substrate. The wild type HadA can catalyze the reaction at 25° C. for 24 h. Whereas the reaction at higher temperature (>30° C.), the half-life of wild type HadA is dramatically decrease for 20 min. In accordance with various embodiments, the present disclosure relates to luciferin derivatives and a method for synthesis of the luciferin derivatives.
The thermostable dehalogenase is a modified HadA, particularly HadA G513T (Thermostable dehalogenase; HadA G513T), containing an amino acid sequence, which is set forth in SEQ ID NO.1 as shown in FIG. 8. The thermostable dehalogenase or HadA G513T is able to catalyze in a range of temperature from 25-50° C. and its half-life at 50° C. is 200 min. However, […]

firefly luciferase, sequence (P08659 whole entry): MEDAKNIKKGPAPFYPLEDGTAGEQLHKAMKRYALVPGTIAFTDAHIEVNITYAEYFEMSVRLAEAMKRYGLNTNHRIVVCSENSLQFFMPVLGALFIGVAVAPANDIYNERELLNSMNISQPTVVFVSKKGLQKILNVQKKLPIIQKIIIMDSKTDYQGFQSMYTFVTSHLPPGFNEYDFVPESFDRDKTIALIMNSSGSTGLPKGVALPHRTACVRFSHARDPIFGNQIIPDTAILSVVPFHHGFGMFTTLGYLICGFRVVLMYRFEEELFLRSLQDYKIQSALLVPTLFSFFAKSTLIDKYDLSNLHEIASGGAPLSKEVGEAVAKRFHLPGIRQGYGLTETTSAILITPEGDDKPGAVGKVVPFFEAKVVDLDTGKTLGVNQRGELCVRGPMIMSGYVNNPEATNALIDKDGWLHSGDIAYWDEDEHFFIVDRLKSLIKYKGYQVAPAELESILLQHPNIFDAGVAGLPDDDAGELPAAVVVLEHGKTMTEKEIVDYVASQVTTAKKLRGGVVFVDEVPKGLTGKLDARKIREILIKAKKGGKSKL
Method for firefly luciferase: The pure luciferin and the purified luciferin derivatives, which are derived from the synthesis and purification methods, reacts with the firefly luciferase, and then the emission wavelength is measured.
The reaction between the luciferin derivatives of the present disclosure and the firefly luciferase can emit the light.

As for 7′-bromoluciferin, the “emitting wavelength as substrate for the firefly luciferase” value on firefly luciferase (spectrofluorometer under bioluminescent mode) is on record as 604 nm. This molecule also came in with a maximum emission wavelength at firefly luciferase (substrate for wild-type firefly luciferase, FIG. 5) of 604 nm.

B1: HadA G513T: modified HadA, thermostable dehalogenase with amino acid sequence SEQ ID NO.1 (protein, listed as Escherichia coli)
chain: MIRTGTQYLESLNDGRNVWVGNEKIDNVATHPKTRDYAQRHADFYDLHHRPDLQDVMTYIDEGGQRRAMQWFGHRDKEQLRRKRKYHETVMREMAGASFPRTPDVNNYVLTTYIDDPAPWETQSIGDDGHIKAGKIVDFIRYAREHDLNCAPQFVDPQMDRSNPDAQERSPGLRVVEKNEKGIVVNGVKAIGTGVAFADWIHIGVFFRPGIPGDQVIFAATPVNTPGVTIVCRESLVKDDKVEHPLAAQGDELDGMTVFENVFIPWSHVFHIGNPNHAKLYPQRVFDWLHYHALIRQMVRAELVAGLAVLITEHIGTNKIPAVQTRVAKLIGFHQAMLAHLIASEELGFHTPGGHYKPNILIYDFGRALYLENFSQMIYELVDLSGRSALIFASEDQWNDDKLNGWFERMNNGPVGRPHDRVKIGRVIRDLFLTDWGSRLFVFENFNGTPLQGIRMLTMQRAEFSGSGPYGKLARQVCGIDSAVTDDTEYRKTADYAKALDAARHQEEVALATAMAI
Broadly, the half-life is how long it takes for the measured level to halve. A higher half-life goes with slow loss. B1 yielded a half-life in series [1] of 3.33 h.
